Where two headings read alike, the source gives them in different places.
Legend:
PRMT5-MEP50 enzyme [1] = biological target: T1, PRMT5-MEP50 enzyme (Homo sapiens, UniProt O14744); test: In vitro assay 1a: high throughput mass spectrometer assay of SAH formation, 10 nM enzyme, 60 min; format: biochemical; details: averaged values, PRMT5-MEP50, 10 nM enzyme, read-out: pIC50 Assay 1a (converted)
T1 construct: One virus expresses full length human PRMT5 with Flag-tag at N-terminus; Flag (N); purchased Charles River (Argenta); host or cells: insect cells (Sf9), baculovirus co-infection
Source text: (§1) Experimental Procedures In Vitro Assay (Assay 1a and 1b)
(§2) PRMT5-MEP50 enzyme was purchased from Charles River (Argenta). The enzyme complex was produced in insect cells (Sf9) infected simultaneously with two baculoviruses. One virus expresses full length human PRMT5 with Flag-tag at N-terminus, the second virus expresses full length MEP50 with His6-TEV cleavage at N-terminus. The protein was affinity purified using anti-Flag (M2) beads eluted with 3×FLAG peptide, followed by His-Select eluted with 0.5M imidazole. Eluted protein was then dialysed against tris-buffered saline (TBS) (pH 8.0) containing 20% glycerol and 3 mM dithiothreitol (DTT).
(§3) Full-length untagged human recombinant histone H2A (residues 1-130, Genbank Accession #NM_021052 MW=14.1 kDa) expressed in E. coli was purchased from Reaction Biology Corporation, Cat #HMT-11-146. Reagents used for making reaction buffer or stopping reaction were purchased including Tris base (Sigma Cat #T-1503), NaCl (Sigma Cat #RGF-3270), MgCl2 (Sigma Cat #M0250), DTTI (Invitrogen Cat #15508-013) and Formic Acid (Riedel deHaen, Cat #33015)
(§4) High Throughput Mass Spectrometer Assay
(§5) PRMT5 catalyzes the sequential methylations of the terminal nitrogen atoms on the guanidine groups of arginine residues within proteins using co-substrate S-adenosyl-L-methionine (AdoMet, SAM), forming mono-methyl (MMA), symmetric-dimethyl arginine (sDMA) and S-adenosyl-L-homocysteine (AdoHcy, SAH). The enzyme activity was determined by following the product SAH formation using high throughput mass spectrometry (Agilent Rapidfire 300 System coupled to a Sciex 4000 series QTrap® triple-quad MS/MS). The reaction buffer was 20 mM Tris-HCl, pH 8.5, 50 mM NaCl, 5 mM MgCl2 and 1 mM DTT. The reaction activity was stopped using 1% formic acid (final concentration).
(§6) The IC50 Studies were performed using eleven point dosing series made for each compound by serially diluted 1:2 in dimethyl sulfoxide (DMSO), with point 12 being a DMSO control. Compounds were first spotted to plates, and followed by addition of 2 μM SAM and 0.6 μM H2A (histone H2A) solution mixture. The same volume of enzyme solution was added to initiate the enzymatic reactions. The final concentrations of the reaction are at 1 μM SAM, 0.3 μM H2A and 10 nM enzyme (assay 1a) or 1.25 nM enzyme (assay 1b). The reaction was incubated at 30° C. for 60 minutes (min) when 10 nM enzyme was used and for 120 min when 1.25 nM enzyme was used. Subsequently, the reaction was quenched by addition of formic acid to a final concentration of 1%. The inhibitions of SAH formation in the presence of compounds were calculated as a percentage of the control relative to the uninhibited reaction as a function of inhibitor concentration. The data were fit as follows: Y=Bottom+(Top−Bottom)/(1+10^((log IC50−X)*h))
(§7) where IC50 is the inhibitor concentration (same unit as X) at 50% inhibition and h is the Hill slope. Y is percent of inhibition, X is log of compound concentration. Bottom and Top are the plateaus in same units as Y.

[2] = system: nuclear symmetric Arginine dimethylation in A549 cells; test: PD assay (assay 2): inhibition of nuclear symmetric Arginine dimethylation (SYM10 immunohistochemistry), 48 h; format: cell-based; details: for IC50: Homo sapiens; for pIC50 Assay 2: averaged values
Experimental: Experimental Procedure PD Assay (Assay 2)
A549 cells (ATCC, Cat #CCL-185) were cultured in Dulbecco's Modified Eagle's Medium (DMEM) (Sigma, Cat #D5796), supplemented with 10% Fetal Calf Serum (FCS) (HyClone™, Cat #SV30160.03), 100 mM Sodium Pyruvate (Sigma, Cat #S8636), 200 mM L-Glutamine (Sigma, Cat #G7513) and 50 mg/mL gentamycin (Gibco, Cat #15750-037).
Reagents used for buffers were purchased: Dulbecco's phosphate buffered saline (DPBS) without Ca/Mg (Sigma, Cat #D8537), phosphate buffered saline (PBS) 10× (Roche, Cat #11 666 789 001), Formalin solution 10% (Sigma, HT50-1-128-4L), Methanol 100% (Sigma, Cat #32213-2.5L), Triton X-100 (Acros, Cat #215680010), Bovine Serum Albumin (BSA) (Sigma, Cat #A2153), Alexa fluor 488 goat anti-rabbit antibody (Life Technologies, Cat #A11034), HCS CellMask Deep Red Stain (Life Technologies, Cat #H32721), Hoechst Stain (Life Technologies, Cat #33258), Anti-dimethyl-Arginine, sym (SYM10) antibody (Millipore, 07-412).
Immunohistochemistry Procedure
Cells were plated at 400 cells/40 μL/well in 384 well black μplates clear bottom (Perkin Elmer) and overnight incubated at 37° C., 5% CO2. […] 80 nL of the respective dilution of the compounds was added using the Labcyte POD 810 (Labcyte) reaching a final DMSO concentration of 0.2% in cell culture. After an incubation period of 48 h at 37° C. and 5% CO2, cells were fixed in 10% formalin solution for 15 min at room temperature and 20 min in ice-cold methanol, after which they were washed 3× in DPBS. Subsequently, the cells were blocked for 1 h in blocking buffer (PBS+1% BSA and 0.5% Triton X-100) and incubated overnight at 4° C. with the SYM10 antibody diluted 1/2000 in blocking buffer. The cells were washed 3× with washing buffer (PBS+0.1% Triton X-100) and incubated with the Alexa fluor 488 goat anti-rabbit antibody diluted 1/200 in blocking buffer for 1 h at room temperature. Subsequently, they were washed 3× with washing buffer and incubated for 30 min at room temperature with PBS containing a 1/5000 dilution of Hoechst Stain and a 1/5000 dilution of the HCS CellMask Deep Red Stain. After a final wash with PBS, the plates were imaged using the 10×W lens of the Opera® system (Perkin Elmer Life Sciences) using following settings (values in nm):
In the above equations, the following variable names are used: […]
In the above equations, the following controls were used for normalization: […]
Low control: minimum level of symmetrically dimethylated Arginines (cells treated with reference compound at 10 μM).
High control: maximum level of symmetrically dimethylated Arginines (DMSO treated cells).
IC50 and pIC50 (−log IC50) values were calculated using the appropriate software.
The pIC50 values in the Table below are averaged values (Co. No. means compound number; n.d. means not determined).

PRMT5-MEP50 enzyme [3] = biological target: T1, PRMT5-MEP50 enzyme; test: In vitro assay 1b: high throughput mass spectrometer assay of SAH formation, 1.25 nM enzyme, 120 min; format: biochemical; details: averaged values, PRMT5-MEP50, 1.25 nM enzyme, 120 min; for IC50: read-out: pIC50 Assay 1b (converted)
Source text: as §1, §2, §3, §4, §5, §6, §7

[4] = A549, averaged values, PD assay, A549 cells, symmetric Arginine dimethylation, read-out: pIC50 Assay 2 (converted)
[5] = PD assay, A549 cells, symmetric Arginine dimethylation
[6] = A549, read-out: pIC50 Assay 2 (converted)

T1 sequence (O14744 whole entry): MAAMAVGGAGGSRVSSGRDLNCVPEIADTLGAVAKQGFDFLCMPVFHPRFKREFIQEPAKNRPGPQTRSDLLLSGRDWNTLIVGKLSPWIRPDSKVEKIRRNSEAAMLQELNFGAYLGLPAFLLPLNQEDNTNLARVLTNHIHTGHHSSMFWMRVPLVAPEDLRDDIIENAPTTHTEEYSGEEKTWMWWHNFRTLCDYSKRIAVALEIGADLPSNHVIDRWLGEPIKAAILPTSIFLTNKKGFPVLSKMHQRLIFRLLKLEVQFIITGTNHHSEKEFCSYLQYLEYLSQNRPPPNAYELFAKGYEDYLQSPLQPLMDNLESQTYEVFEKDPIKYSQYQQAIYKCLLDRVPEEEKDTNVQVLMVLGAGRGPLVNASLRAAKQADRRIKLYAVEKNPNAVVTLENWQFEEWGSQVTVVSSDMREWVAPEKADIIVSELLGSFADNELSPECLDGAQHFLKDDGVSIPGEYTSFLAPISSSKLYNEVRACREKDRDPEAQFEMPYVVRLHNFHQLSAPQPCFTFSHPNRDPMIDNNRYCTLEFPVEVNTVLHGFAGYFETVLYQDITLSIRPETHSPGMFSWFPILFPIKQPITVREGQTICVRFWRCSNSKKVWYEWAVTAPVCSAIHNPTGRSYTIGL
T1 sequence (Q9BQA1 whole entry partner): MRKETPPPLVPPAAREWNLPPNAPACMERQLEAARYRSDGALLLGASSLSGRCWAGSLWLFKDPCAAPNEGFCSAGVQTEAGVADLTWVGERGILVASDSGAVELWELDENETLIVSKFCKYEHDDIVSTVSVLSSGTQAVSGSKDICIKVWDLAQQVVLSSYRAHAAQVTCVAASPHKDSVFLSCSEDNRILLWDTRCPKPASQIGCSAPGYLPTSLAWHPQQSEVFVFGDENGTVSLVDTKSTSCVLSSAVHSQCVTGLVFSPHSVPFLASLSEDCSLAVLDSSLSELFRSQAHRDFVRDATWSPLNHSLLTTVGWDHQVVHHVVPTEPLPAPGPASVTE

| Structure (SMILES) | IC50 (PRMT5-MEP50 enzyme [1]) | IC50 [2, 4] | IC50 (PRMT5-MEP50 enzyme [3]) | pIC50 Assay 1b (PRMT5-MEP50 enzyme [3]) | pIC50 Assay 2 [2, 5] | IC50 [2, 6] |
| --- | --- | --- | --- | --- | --- | --- |
| Nc1ncnc2c1c(Br)cn2[C@@H]1O[C@H](COc2ccc3cccnc3c2)[C@@H](O)[C@H]1O [Compound 45] | 251 nM | 631 nM | – | – | – | – |
| Nc1ncnc2c1ccn2[C@@H]1O[C@H](COc2ccc3ccc(Cl)nc3c2)[C@@H](O)[C@H]1O [Compound 20] | 2000 nM | 6310 nM | – | – | – | – |
| Nc1ncnc2c1ccn2[C@@H]1C[C@H](Cc2ccc3ccccc3c2)[C@@H](O)[C@H]1O [Compound 90] | 100 nM | > 10000 nM | 631 nM | – | – | – |
| Nc1ncnc2c1ccn2[C@@H]1C[C@H](Cc2ccc3cccnc3c2)[C@@H](O)[C@H]1O [Compound 66] | 2000 nM | > 20000 nM | 5010 nM | – | – | – |
| O[C@@H]1[C@H](O)[C@@H](CCc2ccc3ccc(NCC4CC4)nc3c2)O[C@H]1n1ccc2c(Cl)ncnc21 [Compound 138] | 7.94 nM | 126 nM | 79.4 nM | – | – | – |
| Nc1ccc2ccc(OC[C@H]3O[C@@H](n4ccc5c(Cl)ncnc54)[C@H](O)[C@@H]3O)cc2n1 [Compound 130] | 0.631 nM | 12.6 nM | 7.94 nM | – | – | – |
| Nc1ncnc2c1ccn2[C@@H]1O[C@H](CCc2ccc3ccc(NCC4CC4)nc3c2)[C@@H](O)[C@H]1O [Compound 139] | 1.26 nM | 6.31 nM | 10 nM | – | – | – |
| Nc1ncnc2c1ccn2[C@@H]1C[C@H](CNc2ccc3cc(Br)cnc3c2)[C@@H](O)[C@H]1O [Compound 54a] | 7.94 nM | – | – | 7.8 | 7.4 | – |
| CN(C[C@H]1O[C@@H](n2ccc3c(Cl)ncnc32)[C@H](O)[C@@H]1O)c1ccc2cc(Br)cnc2c1 [Compound 86] | 2510 nM | 5010 nM | 1000 nM | – | – | – |
| Nc1ncnn2c([C@@H]3O[C@H](COc4ccc5cccnc5c4)[C@@H](O)[C@H]3O)ccc12 [Compound 60] | 251 nM | 1260 nM | 398 nM | – | – | – |
| Nc1ncnc2c1ccn2[C@@H]1O[C@H](CCc2ccc3cc(Br)cnc3c2)[C@@H](O)[C@H]1O [Compound 111] | 12.6 nM | 63.1 nM | 39.8 nM | – | – | – |
| CNc1ccc2ccc(CC[C@H]3C[C@@H](n4ccc5cncnc54)[C@H](O)[C@@H]3O)cc2n1 [Compound 164] | 0.398 nM | < 1.17 nM | 10 nM | – | – | – |
| CC(C)Nc1ccc2ccc(CC[C@H]3C[C@@H](n4ccc5c(N)ncnc54)[C@H](O)[C@@H]3O)cc2n1 [Compound 149] | 0.316 nM | – | 5.01 nM | – | – | 1 nM |
| Cc1c(OC[C@H]2O[C@@H](n3ccc4c(N)ncnc43)[C@H](O)[C@@H]2O)ccc2cccnc12 [Compound 39] | 2510 nM | 2000 nM | – | – | – | – |
| Nc1ncnc2c1ccn2[C@@H]1O[C@H](CSc2ccc3cccnc3c2)[C@@H](O)[C@H]1O [Compound 48] | 100 nM | 398 nM | – | – | – | – |
| Nc1ncnc2c1ccn2[C@@H]1C[C@H](/C=C/c2ccc3cc(Cl)cnc3c2)[C@@H](O)[C@H]1O [Compound 57] | 31.6 nM | ~151 nM | – | – | – | – |
| Nc1ncnc2c1ccn2[C@@H]1O[C@H](COc2cnc3cccnc3c2)[C@@H](O)[C@H]1O [Compound 14] | 1260 nM | > 20000 nM | – | – | – | – |
| Nc1ncnc2c1ccn2[C@@H]1O[C@H](COc2ccc3ccccc3c2)[C@@H](O)[C@H]1O [Compound 9] | 3160 nM | > 20000 nM | – | – | – | – |
| Nc1ncnc2c1ccn2[C@@H]1O[C@H](COc2cccc3ccncc23)[C@@H](O)[C@H]1O [Compound 7] | 1260 nM | ~17400 nM | – | – | – | – |
| CNC(=O)c1ccc2ccc(OC[C@H]3O[C@@H](n4ccc5c(N)ncnc54)[C@H](O)[C@@H]3O)cc2n1 [Compound 246] | 3160 nM | > 20000 nM | – | – | – | – |
| Nc1ncnc2c1ccn2[C@@H]1O[C@H](COc2ccc3nccnc3c2)[C@@H](O)[C@H]1O [Compound 15] | 1000 nM | > 3980 nM | – | – | – | – |
| CNc1ncnc2c1ccn2[C@@H]1C[C@H](CCc2ccc3ccc(N)nc3c2)[C@@H](O)[C@H]1O [Compound 78] | 1.26 nM | – | – | – | – | 0.316 nM |
| Nc1ccc2ccc(CC[C@H]3C[C@@H](n4ccc5cncnc54)[C@H](O)[C@@H]3O)cc2n1 [Compound 77] | 0.501 nM | < 1.17 nM | – | – | – | – |
| Nc1ncnc2c1ccn2[C@@H]1O[C@H](COc2cc3ncc(Br)cc3cc2Cl)[C@@H](O)[C@H]1O [Compound 92] | 63.1 nM | 794 nM | – | – | – | – |
| CC(Oc1ccc2cccnc2c1)[C@H]1O[C@@H](n2ccc3c(N)ncnc32)[C@H](O)[C@@H]1O (single isomer, unassigned) [Compound 67] | 100 nM | – | – | – | 6.5 | – |
| Nc1ncnc2c1ccn2[C@@H]1O[C@H](COc2ccc3cc(Br)cnc3c2Cl)[C@@H](O)[C@H]1O [Compound 94] | 1000 nM | ~1000 nM | – | – | – | – |
| COc1ncnc2c1ccn2[C@@H]1C[C@H](CCc2ccc3ccc(N)nc3c2)[C@@H](O)[C@H]1O [Compound 79] | 0.398 nM | < 1.17 nM | – | – | – | – |
| Nc1nc2cc(CC[C@H]3C[C@@H](n4ccc5c(N)ncnc54)[C@H](O)[C@@H]3O)ccc2cc1Cl [Compound 81] | 0.251 nM | 0.2 nM | – | – | – | – |
| COc1cc2c(Cl)ccnc2cc1OC[C@H]1O[C@@H](n2ccc3c(N)ncnc32)[C@H](O)[C@@H]1O [Compound 36] | 7940 nM | > 20000 nM | – | – | – | – |
